# Peptide text beside a SMILES is read from it.
# Tests used:
# [1] = test system: CB8-MDPP; assay: Binding constants of chiral analytes with CB8-MDPP receptor complex, UV/Vis titration; details: CB8-MDPP (20 µM), H2O, 22 °C; from UV/Vis titrations, estimated error ≤ 10%
# Source text: (§1) Bindungskonstanten zwischen CB8-Farbstoff-Komplexen und den in Tabelle 1 aufgeführten Analyten wurden mittels UV/Vis-Titration in H2O, sofern nicht anders angegeben, durchgeführt. Zu einer Lösung aus dem CB8-Farbstoff-Rezeptor wurde schrittweise eine Lösung des Analyten gegeben, und die UV/Vis-Spektren wurden aufgezeichnet. Die normalisierte Absorption bei 419 nm (CB8-MDAP) oder bei 443 nm (CB8-MDPP) wurde mit einer Gleichung für eine 1:1-Bindung mittels der Kleinstquadratmethode angepasst ([50]).
# [2] = test system: CB8-MDAP; assay: Binding constants of chiral analytes with CB8-MDAP receptor complex, UV/Vis titration; details: CB8-MDAP (100 µM), H2O, 22 °C; from UV/Vis titrations, estimated error ≤ 10%
# Source text: as §1
# [3] = test system: CB8-MDPP; assay: Binding constants of chiral analytes with CB8-MDPP receptor complex, ICD titration; details: CB8-MDPP (20 µM), H2O, 22 °C; obtained by ICD titration
# Source text: Die Bindungsaffinitäten der strukturell verschiedenartigen Analyten lagen im Bereich von 10^3 bis 10^6 M^-1, wodurch eine hochempfindliche Detektion ermöglicht wird. Die durch ICD-Titrationen ermittelten Bindungskonstanten bestätigten die durch UV/Vis-Messungen ermittelten. In allen Fällen fungiert CB8 als unverzichtbare Grundlage für die ICD-Effekte. […] Wie erwartet, ergab ein anderer Reporter-Farbstoff, MDAP oder MVE, jeweils ein anderes ICD-Spektrum, jedoch bei gleichermaßen niedriger Analytenkonzentration (40-100 µM, im Vergleich zu 20 µM, s. Tabelle 4, Fig. 3).
SMILES,Ka [1],Ka [2],Ka [3]
N[C@@H](CC(=O)O)C(=O)N[C@@H](Cc1ccccc1)C(=O)O [AspPhe] (H-Asp-Phe-OH),7 10^3 M^-1,0.8 10^3 M^-1,
N[C@@H](CCC(=O)O)C(=O)N[C@@H](Cc1c[nH]c2ccccc12)C(=O)O [GluTrp] (H-Glu-Trp-OH),210 10^3 M^-1,25 10^3 M^-1,
NCC(=O)N[C@@H](Cc1c[nH]c2ccccc12)C(=O)NCC(=O)O [GlyTrpGly] (H-Gly-Trp-Gly-OH),5000 10^3 M^-1,,
N[C@@H](Cc1ccccc1)C(=O)NCC(=O)O [PheGly] (H-Phe-Gly-OH),1900 10^3 M^-1,25 10^3 M^-1,
CC(C)[C@H](NC(=O)[C@@H](N)Cc1ccccc1)C(=O)O [PheVal] (H-Phe-Val-OH),1500 10^3 M^-1,11 10^3 M^-1,1400^d 10^3 M^-1

# Results, then the compound that gave them:
Ka [1],Ka [2],Ka [3],SMILES
200 10^3 M^-1,,,N[C@@H](Cc1c[nH]c2ccccc12)C(=O)NCC(=O)NCC(=O)O [TrpGlyGly] (H-Trp-Gly-Gly-OH)
430 10^3 M^-1,50 10^3 M^-1,,N[C@@H](Cc1c[nH]c2ccccc12)C(=O)N1CCC[C@H]1C(=O)O [TrpPro] (H-Trp-Pro-OH)

# — patent EP2899531B1, “Method for detecting a chiral analytes” (Jacobs University Bremen gGmbH, priority 2013, dated 2015)
